≈ marks a conversion by molar mass, not a printed value.
Experiments:
[1] = tested on: Neisseria meningitidis (N. meningitidis) 13090; test: Antibacterial activity, MIC, N. meningitidis 13090; assay type: cell-based; details: Neisseria meningitidis; N. meningitidis 13090; read-out: MIC 13090
[2] = tested on: Pseudomonas aeruginosa (P. aeruginosa) 27853; test: Antibacterial activity, MIC, P. aeruginosa 27853; assay type: cell-based; details: Pseudomonas aeruginosa, P. aeruginosa 27853; read-out: MIC 27853
Text: (§1) The antibacterial activity from a microbroth dilution method may be presented as the minimum inhibitory concentration (MIC in […]). The MIC value is the lowest concentration of a drug which prevents macroscopically visible bacterial growth under test conditions.
Antibacterial activity of test compounds against the Gram-negative bacterium Pseudomonas aeruginosa (P. aeruginosa) 27853 is shown in Table 5.

[3] = tested on: super sensitive Gram-negative Escherichia coli (E. coli) BAS849; test: Antibacterial activity, microbroth dilution MIC, E. coli BAS849; assay type: cell-based; details: Escherichia coli; E. coli BAS849, microbroth dilution; read-out: MIC, BAS849
[4] = tested on: quinolone resistant E. coli LZ3111; test: Antibacterial activity, MIC, quinolone resistant E. coli LZ3111; assay type: cell-based, Escherichia coli; details: Escherichia coli, read-out: MIC, LZ3111
Text: as §1
Mutations in these regions are known to confer a high level resistance to the quinolone class of antibiotics.

[5] = tested on: Moraxella catarrhalis (M. catarrhalis) 25238; test: Antibacterial activity, MIC, M. catarrhalis 25238; assay type: cell-based; details: Moraxella catarrhalis, M. catarrhalis 25238; read-out: MIC 25238
[6] = tested on: E. coli ELZ4000 (MDR clinical isolate); test: Antibacterial activity, MIC, MDR E. coli ELZ4000; assay type: cell-based, Escherichia coli; details: Escherichia coli; E. coli ELZ4000, MDR clinical isolate; read-out: MIC ELZ4000
[7] = tested on: E. coli ELZ4251 (MDR clinical isolate); test: Antibacterial activity, MIC, MDR E. coli ELZ4251; assay type: cell-based, Escherichia coli; details: Escherichia coli, E. coli ELZ4251, MDR clinical isolate; read-out: MIC ELZ4251
[8] = tested on: control Gram-negative E. coli 25922 strain; test: Antibacterial activity, microbroth dilution MIC, E. coli 25922; assay type: cell-based, Escherichia coli; details: Escherichia coli; E. coli 25922, microbroth dilution; read-out: MIC, 25922
[9] = tested on: Klebsiella pneumoniae (K. pneumoniae) 35657; test: Antibacterial activity, MIC, K. pneumoniae 35657; assay type: cell-based; details: Klebsiella pneumoniae
[10] = tested on: resistant K. pneumoniae MXX1232 (MDR clinical isolate); test: Antibacterial activity, MIC, resistant K. pneumoniae MXX1232; assay type: cell-based, Klebsiella pneumoniae; details: Klebsiella pneumoniae; resistant K. pneumoniae MMX1232, MDR clinical isolate; read-out: MIC MMX1232
[11] = tested on: Haemophilus influenzae (H. influenzae) 49247; test: Antibacterial activity, MIC, H. influenzae 49247; assay type: cell-based; details: Haemophilus influenzae; H. influenzae 49247; read-out: MIC 49247
Summary of the method: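 A microbroth dilution method gave the minimum inhibitory concentration for each compound against H. influenzae 49247, a Gram-negative bacterium. MIC means the smallest concentration of drug at which no macroscopically visible bacterial growth appears under the conditions of the test.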

[12] = tested on: Gram-positive Staphylococcus aureus (S. aureus) 29213; test: Antibacterial activity, microbroth dilution MIC, S. aureus 29213; assay type: cell-based; details: Staphylococcus aureus; S. aureus 29213, microbroth dilution; read-out: MIC, 29213
[13] = tested on: resistant A. baumannii MXX2240 (MDR clinical isolate); test: Antibacterial activity, MIC, resistant A. baumannii MXX2240; assay type: cell-based, Acinetobacter baumannii; details: Acinetobacter baumannii, resistant A. baumannii MMX2240, MDR clinical isolate; read-out: MIC MMX2240
[14] = tested on: Acinetobacter baumannii (A. baumannii) BAA747; test: Antibacterial activity, MIC, A. baumannii BAA747; assay type: cell-based; details: Acinetobacter baumannii; A. baumannii BAA747; read-out: MIC BAA747

Structure (SMILES)	MIC [1] [µg/mL]	MIC [2] [µg/mL]	MIC [3] [µg/mL]	MIC [4] [µg/mL]	MIC [5] [µg/mL]	MIC [6] [µg/mL]	MIC [7] [µg/mL]	MIC [8] [µg/mL]	MIC [9] [µg/mL]	MIC [10] [µg/mL]	MIC [11] [µg/mL]	MIC [12] [µg/mL]	MIC [13] [µg/mL]	MIC [14] [µg/mL]
CCc1c(-c2ccc(N3CC4CC4(N)C3)cc2)[nH]c(=O)c(C(=O)O)c1O.Cl (stereo not shown) [Cpd 277, 6-[4-(1-amino-3-azabicyclo[3.1.0]hex-3-yl)phenyl]-5-ethyl-4-hydroxy-2-oxo-1,2-dihydropyridine-3-carboxylic acid hydrochloride]	< 1	12.5 to 150	< 1	3.5 to 12.5	1 to 3.5	12.5 to 150	12.5 to 150	1 to 3.5	1 to 3.5	12.5 to 150	1 to 3.5	3.5 to 12.5	12.5 to 150	3.5 to 12.5
CCc1c(-c2ccc(N3C[C@H]4CCC[C@@H](N(C)C)[C@H]4C3)cc2)[nH]c(=O)c(C(=O)O)c1O.Cl [Cpd 261, 6-{4-[(3aR,4R,7aS)-4-(dimethylamino)octahydro-2H-isoindol-2-yl]phenyl}-5-ethyl-4-hydroxy-2-oxo-1,2-dihydropyridine-3-carboxylic acid hydrochloride]	< 1	12.5 to 150	< 1	1 to 3.5	3.5 to 12.5	12.5 to 150	3.5 to 12.5	3.5 to 12.5	12.5 to 150	12.5 to 150	12.5 to 150	3.5 to 12.5	12.5 to 150	12.5 to 150
CCc1c(-c2ccc(N3C[C@H]4CC[C@@H](NC)[C@H]4C3)cc2)[nH]c(=O)c(C(=O)O)c1O.Cl [Cpd 256, 5-ethyl-4-hydroxy-6-{4-[(3aR,4R,6aS)-4-(methylamino)hexahydrocyclopenta[c]pyrrol-2(1H)-yl]phenyl}-2-oxo-1,2-dihydropyridine-3-carboxylic acid hydrochloride]	< 1	12.5 to 150	< 1	1 to 3.5	1 to 3.5	12.5 to 150	3.5 to 12.5	1 to 3.5	1 to 3.5	12.5 to 150	3.5 to 12.5	3.5 to 12.5	12.5 to 150	12.5 to 150
CCc1c(-c2ccc(N(C)C)cc2)[nH]c(=O)c(C(=O)O)c1O [Cpd 90, 6-[4-(dimethylamino)phenyl]-5-ethyl-4-hydroxy-2-oxo-1,2-dihydropyridine-3-carboxylic acid]	< 1	12.5 to 150 (≈ 41.3 to 496 µM)	< 1	12.5 to 150 (≈ 41.3 to 496 µM)	< 1	12.5 to 150 (≈ 41.3 to 496 µM)	12.5 to 150 (≈ 41.3 to 496 µM)	1 to 3.5 (≈ 3.31 to 11.6 µM)	3.5 to 12.5 (≈ 11.6 to 41.3 µM)	12.5 to 150 (≈ 41.3 to 496 µM)	–	3.5 to 12.5 (≈ 11.6 to 41.3 µM)	3.5 to 12.5 (≈ 11.6 to 41.3 µM)	1 to 3.5 (≈ 3.31 to 11.6 µM)
CCc1c(-c2ccc(N(C)C)nc2)[nH]c(=O)c(C(=O)O)c1O [Cpd 87, 6-[6-(dimethylamino)pyridin-3-yl]-5-ethyl-4-hydroxy-2-oxo-1,2-dihydropyridine-3-carboxylic acid]	< 1	12.5 to 150 (≈ 41.2 to 495 µM)	< 1	1 to 3.5 (≈ 3.3 to 11.5 µM)	1 to 3.5 (≈ 3.3 to 11.5 µM)	1 to 3.5 (≈ 3.3 to 11.5 µM)	1 to 3.5 (≈ 3.3 to 11.5 µM)	12.5 to 150 (≈ 41.2 to 495 µM)	12.5 to 150 (≈ 41.2 to 495 µM)	12.5 to 150 (≈ 41.2 to 495 µM)	1 to 3.5 (≈ 3.3 to 11.5 µM)	12.5 to 150 (≈ 41.2 to 495 µM)	< 1	3.5 to 12.5 (≈ 11.5 to 41.2 µM)
CCc1cc(C(=O)O)c(=O)[nH]c1-c1ccc(N2C[C@@H]3[C@H](C2)[C@H]3NCc2ccccc2)cc1 [Cpd 178, 6-{4-[(1R,5S,6s)-6-(benzylamino)-3-azabicyclo[3.1.0]hex-3-yl]phenyl}-5-ethyl-2-oxo-1,2-dihydropyridine-3-carboxylic acid]	–	12.5 to 150 (≈ 29.1 to 349 µM)	< 1	12.5 to 150 (≈ 29.1 to 349 µM)	–	12.5 to 150 (≈ 29.1 to 349 µM)	12.5 to 150 (≈ 29.1 to 349 µM)	< 1	< 1	12.5 to 150 (≈ 29.1 to 349 µM)	–	12.5 to 150 (≈ 29.1 to 349 µM)	12.5 to 150 (≈ 29.1 to 349 µM)	1 to 3.5 (≈ 2.33 to 8.15 µM)
CCc1cc(C(=O)O)c(=O)[nH]c1-c1ccc(N(C)C)nc1 [Cpd 86, 6-[6-(dimethylamino)pyridin-3-yl]-5-ethyl-2-oxo-1,2-dihydropyridine-3-carboxylic acid]	< 1	12.5 to 150 (≈ 43.5 to 522 µM)	1 to 3.5 (≈ 3.48 to 12.2 µM)	12.5 to 150 (≈ 43.5 to 522 µM)	1 to 3.5 (≈ 3.48 to 12.2 µM)	–	–	12.5 to 150 (≈ 43.5 to 522 µM)	12.5 to 150 (≈ 43.5 to 522 µM)	12.5 to 150 (≈ 43.5 to 522 µM)	< 1	12.5 to 150 (≈ 43.5 to 522 µM)	12.5 to 150 (≈ 43.5 to 522 µM)	12.5 to 150 (≈ 43.5 to 522 µM)
CCc1c(-c2ccc(N3C[C@H]4CCN[C@H]4C3)cc2)[nH]c(=O)c(C(=O)O)c1O.Cl [Cpd 246, 5-ethyl-6-{4-[(3aR,6aR)-hexahydropyrrolo[3,4-b]pyrrol-5(1H)-yl]phenyl}-4-hydroxy-2-oxo-1,2-dihydropyridine-3-carboxylic acid hydrochloride]	1 to 3.5	12.5 to 150	< 1	–	3.5 to 12.5	12.5 to 150	3.5 to 12.5	1 to 3.5	1 to 3.5	12.5 to 150	1 to 3.5	12.5 to 150	12.5 to 150	12.5 to 150
CCc1cc(C(=O)O)c(=O)[nH]c1-c1ccc(N2C[C@@H]3[C@@H](N)[C@@H]3C2)cc1 [Cpd 177, 6-{4-[(1R,5S,6s)-6-amino-3-azabicyclo[3.1.0]hex-3-yl]phenyl}-5-ethyl-2-oxo-1,2-dihydropyridine-3-carboxylic acid]	< 1	1 to 3.5 (≈ 2.95 to 10.3 µM)	< 1	12.5 to 150 (≈ 36.8 to 442 µM)	< 1	12.5 to 150 (≈ 36.8 to 442 µM)	12.5 to 150 (≈ 36.8 to 442 µM)	< 1	< 1	12.5 to 150 (≈ 36.8 to 442 µM)	–	12.5 to 150 (≈ 36.8 to 442 µM)	12.5 to 150 (≈ 36.8 to 442 µM)	1 to 3.5 (≈ 2.95 to 10.3 µM)
CCc1c(-c2cnc(N(C)C)cn2)[nH]c(=O)c(C(=O)O)c1O [Cpd 312, 6-(5-(dimethylamino)pyrazin-2-yl)-5-ethyl-4-hydroxy-2-oxo-1,2-dihydropyridine-3-carboxylic acid]	–	12.5 to 150 (≈ 41.1 to 493 µM)	< 1	12.5 to 150 (≈ 41.1 to 493 µM)	–	–	–	12.5 to 150 (≈ 41.1 to 493 µM)	3.5 to 12.5 (≈ 11.5 to 41.1 µM)	12.5 to 150 (≈ 41.1 to 493 µM)	–	12.5 to 150 (≈ 41.1 to 493 µM)	12.5 to 150 (≈ 41.1 to 493 µM)	3.5 to 12.5 (≈ 11.5 to 41.1 µM)
